Reference: PubChem BioAssay (NCI)
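Test compounds were applied to cells in 96-well plates for 48 hours at 5 doses. GI50 is the concentration that inhibits growth by half. TGI marks complete inhibition of growth.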 Where a SMILES comes first, the peptide text is derived from it. [ ]: non-standard residue; d: D form. The star is where a group is joined. mTyr = N[CH](Cc1cccc(O)c1)C(=O)O; Cbz = O=C(OCc1ccccc1)*; OBn = c1ccc(CO*)cc1

What was measured:
Assay in all cases: inhibition of tumour cell growth, NCI panel, 48 h
[1] = system: SNB-19 CNS
[2] = system: NCI-H23 lung
[3] = system: SK-MEL-2 melanoma
[4] = system: HT29 colon
[5] = system: UACC-257 melanoma
[6] = system: HOP-62 NSCLC
[7] = system: LOX IMVI melanoma
[8] = system: OVCAR-4 ovarian
[9] = system: SF-539 CNS
[10] = system: SW-620 colon

Structure (SMILES)	TGI [1] [µM]	TGI [2] [µM]	TGI [3] [µM]	TGI [4] [µM]	TGI [5] [µM]	TGI [6] [µM]	TGI [7] [µM]	TGI [8] [µM]	TGI [9] [µM]	TGI [10] [µM]	GI50 [1] [µM]	GI50 [2] [µM]	GI50 [3] [µM]	GI50 [4] [µM]	GI50 [5] [µM]	GI50 [6] [µM]	GI50 [7] [µM]	GI50 [9] [µM]	GI50 [10] [µM]
COc1cc2c(cc1OC)C1(c3ccc(Cl)cc3)ON=C(c3ccccc3)N1CS2 (configuration not stated)	> 100	> 100	> 100	> 100	> 100	> 100	> 100	> 100	> 100	> 100									
CCN(c1cccc(NC(=S)Nc2ccccc2N(CC)c2cc(-c3ccccc3)no2)c1)c1cc(-c2ccccc2)no1	> 100	> 100	> 100	> 100	> 100	> 100	> 100	> 100	> 100	> 100									
O=C(Cc1ccccc1)NN1C(=O)C(Cl)C1c1ccccc1O (configuration not stated)	82	> 100	> 100	> 100	71.5	> 100	> 100	> 100		> 100									
CC1(O)OC(=O)C2=C1CCC1C2CCC2(C)C(O)CCC12 (configuration not stated)	> 100	> 100		> 100	> 100	> 100	> 100	> 100	> 100	> 100									
COC(=O)c1c(O)ccc2c1C1(Cc3ccccc3C1=O)C(O)O2 (configuration not stated)	> 100	> 100	> 100	> 100	> 100	28.7	> 100	35.8	55.7	> 100									
Brc1ccc(-c2cn3ccncc3n2)cc1	> 100	> 100	> 100	> 100	85.6	> 100	> 100	> 100	> 100										
C/C(=C/CC[C@]1(CO)CC[C@]2(CO)[C@H](CC[C@@H]3[C@@]4(C)CC[C@H](OC5OCC(O)C(O)C5OC5OC(CO)C(O)C(O)C5O)C(C)(C)[C@@H]4CC[C@]32C)[C@H]1O)CO (some centres not stated)	> 100	> 100		> 100	> 100	> 100	> 100	> 100	> 100	> 100									
COc1cccc(N2C(=O)C3c4[nH]c5ccc(C)cc5c4C4CCC(C(C)(C)C)CC4C3C2=O)c1 (configuration not stated)	> 10	5.74	> 10	> 10		> 10	3.98	> 10	7.41	> 10									
CC(C)CN=C(N)N=C(N)N	> 100	> 100	> 100	> 100	> 100	> 100	> 100	> 100	> 100	> 100									
CCOP(=O)(OCC)C(C)(CC)NC (configuration not stated)	> 100	> 100	> 100	> 100	> 100	> 100	> 100	> 100	> 100	> 100									
O=C1C[C@@H](c2ccccc2)O[C@@H](c2ccccc2)C1	> 100	> 100	> 100	> 100	> 100	> 100	> 100	> 100	> 100	> 100									
C=CCOC(=O)C1C2OC3(C(C(=O)OC)=C2C(=O)OC)c2ccccc2CCC13 (configuration not stated)	> 10	> 10	> 10	> 10	> 10	> 10	> 10	> 10	> 10	> 10									
O=C(O)CNC(=O)c1c2ccccc2nc2ccccc12	> 100	> 100	> 100	> 100	> 100	> 100	> 100	> 100	> 100	> 100									
Cc1ccc(/C(O)=C/C(=O)C(=O)NN=C(c2ccccc2)c2ccccc2)cc1	> 100	> 100	> 100	> 100	> 100		> 100	> 100	> 100	> 100									
CC[C@@H](/C=C\CCC(=O)C[C@H](O)CCC=C(C)C)O[Si](C(C)C)(C(C)C)C(C)C	> 100	> 100	> 100	> 100	> 100	> 100	> 100	> 100	> 100	> 100									
Cc1ccc2nc(NC(=O)/C(Cc3nc4ccc(Cl)cc4[nH]c3=O)=N\NC(C)(C)C)sc2c1	> 100	> 100	> 100	> 100	> 100		> 100	> 100	> 100	> 100									
CCN(CC)Cc1sc2nc3ccccc3n2c1-c1ccc(OC)cc1	> 100	> 100	> 100	40.7	> 100	> 100	> 100	> 100		> 100									
CCOC(=O)c1ccc(C(=O)C(C(C)=O)C(=O)OC(C)(C)C)[nH]1 (configuration not stated)	> 100	> 100	> 100	> 100		> 100	> 100	> 100		> 100									
COc1ccc2c(c1)CCN1CCc3cc(OC)c(OC)cc3CC21 (configuration not stated)	> 100	> 100		> 100	> 100		> 100	> 100	> 100	> 100									
CC(C)[C@@H]1ON1C(C)c1ccccc1 (some centres not stated)	> 100	> 100		> 100	> 100	> 100	> 100	> 100	> 100	> 100									
O[C@H]1[C@H](O)[C@@H](O)[C@@]2(O)C[C@@H](O)[C@@H]1N2	> 100	> 100		> 100	> 100	> 100	> 100	> 100	> 100	> 100									
CC(C)(CC(O)C#N)/[N+]([O-])=[N+](\[O-])C(C)(C)CC(O)C#N (configuration not stated)	> 100	66.8	> 100	> 100	58.1	37.9	42.7	81		34.1									

Structure (SMILES)	TGI [1] [µM]	TGI [2] [µM]	TGI [3] [µM]	TGI [4] [µM]	TGI [5] [µM]	TGI [6] [µM]	TGI [7] [µM]	TGI [8] [µM]	TGI [9] [µM]	TGI [10] [µM]	GI50 [1] [µM]	GI50 [2] [µM]	GI50 [3] [µM]	GI50 [4] [µM]	GI50 [5] [µM]	GI50 [6] [µM]	GI50 [7] [µM]	GI50 [9] [µM]	GI50 [10] [µM]
COc1ccc(-n2cnc3c(NC(CCSC)C(=O)O)ncnc32)cc1 (configuration not stated)	> 100	> 100	> 100	> 100	> 100	> 100	> 100	> 100		> 100									
COC(=O)C1=C(C)N2[C@H](C(=O)O)CO[C@@]2(C)[C@H](C(=O)OC)[C@H]1c1cccc([N+](=O)[O-])c1	> 100	> 100	> 100	> 100	> 100	> 100		> 100	> 100	> 100									
CC1OC(O[C@H]2/C=C/C=C/C=C/C=C/C=C/C=C/C=C/[C@H](C)[C@@H](O)[C@@H](C)[C@H](C)OC(=O)CC(O)CC(O)CCC(O)C(O)CC(O)C[C@]3(O)C[C@H](O)C(C(=O)O)C(C2)O3)C(O)[C@H](N)C1O (some centres not stated)	6.52	5.36	12	14.7	3.4	3.11	3.6		11.6	7.73	2.57	2.11	3.9	4.3	1.75	1.57	1.79	2.92	2.58
O=C(CC(=O)Nc1ccccc1)N/N=C/c1cc(N=Nc2ccc(Br)cc2)ccc1O		> 10			7.71	> 10	> 10	> 10	> 10	> 10									
Cc1ccc(N=Nc2c(O)c(C(=O)Nc3ccccc3)cc3ccccc23)c([N+](=O)[O-])c1	> 100	> 100	> 100	> 100	> 100	> 100	> 100	> 100		> 100									
CCC1(COC(NC(=O)c2ccccc2)(C(F)(F)F)C(F)(F)F)COC1	> 100	> 100	> 100	> 100	> 100		> 100		> 100	> 100									
COC(=O)c1cnn2c1n[n+]([O-])c1ccccc12		> 100	> 100	> 100	> 100	> 100	> 100			> 100									
COc1cc([C@@H]2c3cc(O)c(OC)cc3C=C(C(N)=O)[C@H]2C(N)=O)ccc1O	> 100	> 100		> 100	> 100	> 100	> 100		> 100	> 100									
O=[As](O)(O)c1ccc(N=Nc2ccc(O)cc2)cc1	> 100	> 100	> 100	> 100		> 100	> 100	> 100		> 100									
COC(=O)C(Cc1cccc(O)c1)NC(=O)C(CC(=O)OCc1ccccc1)NC(=O)OCc1ccccc1 (configuration not stated) (Cbz-Asp(OBn)-[mTyr]-OMe; configuration not given here)	> 100	> 100	> 100	> 100	> 100	> 100				> 100									
COC(=O)c1c(OC(C)=O)ccc2c1c1c(OC(C)=O)c3ccccc3c(OC(C)=O)c1n2Cc1ccccc1	> 50	18.3	6.81	31.5	> 50	25.4		29.6	4.04										
COc1ccc2oc(=N)c(C(=O)Nc3ccccn3)cc2c1	> 100	> 100	> 100	> 100	> 100	> 100	> 100	> 100		> 100									
CN(C)CCCN1c2ccccc2CCc2ccc([N+](=O)[O-])cc21	> 100	> 100	43.9	46.5	31.8	62.9	31.5	> 100		> 100									
COc1ccc(N=C2C(=Nc3ccc(OC)cc3)N(c3ccccc3)C(=S)N2N=C=C2Sc3ccccc3N2C)cc1	> 100	> 100	> 100	> 100	> 100	> 100			> 100	> 100									
CCCc1ccc(NCc2cc(OC)c(OC)c(OC)c2)cc1	> 100	69.2	44.2	61.7	74.7	> 100	30.7	> 100	63.3										
CC(C)(C)OC(=O)NCCC1CN(C(=O)c2ccccc2)c2ccccc21 (configuration not stated)	> 100	88.8	91.2	63.7	75.2	83.2		> 100		> 100									
CC(NC(C)(C)C)C(=O)c1cccc(Cl)c1 (configuration not stated)		> 100	> 100	> 100	> 100	> 100	> 100	> 100	> 100	> 100									
CC(C)=C/C=C1/CS(=O)(=O)C=C1C	> 100	> 100	> 100	> 100	> 100	> 100	> 100		> 100	> 100									
COc1ccc(CSc2ccccc2Cn2cccc2)cc1OC	> 100	> 100		> 100	> 100	> 100	> 100	> 100	> 100	> 100									
CCN(CC)CCNCc1cc(Cl)cc2c1OCOC2	> 10	> 10	> 10	> 10		> 10	> 10	> 10	> 10	> 10									
COc1ccc(/C=C2\CN(C)C/C(=C\c3ccc(OC)c(OC)c3OC)C2=O)c(OC)c1OC	1.2		2.4		0.571	0.84	0.319	1.13	0.311	0.425									
Brc1c(C#CCC2CCCCC2)ccc(C#CCC2CCCCC2)c1Br	> 100		> 100		> 100		> 100	> 100	> 100	> 100									
